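Results reflect a 48-hour exposure of cells in 96-well plates to compound at five concentrations. GI50 is the concentration that inhibits growth by half. TGI: total growth inhibition.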
Experiments:
Experiment in all cases: DTP human tumour cell line panel, 48 h
786-0 renal = tested on: 786-0 renal
A549 NSCLC = tested on: A549 NSCLC
ACHN renal = tested on: ACHN renal
BT-549 breast = tested on: BT-549 breast
CAKI-1 renal = tested on: CAKI-1 renal
CCRF-CEM leukemia = tested on: CCRF-CEM leukemia
COLO 205 colon = tested on: COLO 205 colon
EKVX NSCLC = tested on: EKVX NSCLC
HCC-2998 colon = tested on: HCC-2998 colon
HCT-116 colon = tested on: HCT-116 colon
HCT-15 colon = tested on: HCT-15 colon
HL-60(TB) leukemia = tested on: HL-60(TB) leukemia
HOP-62 NSCLC = tested on: HOP-62 NSCLC
HOP-92 NSCLC = tested on: HOP-92 NSCLC
HS 578T breast = tested on: HS 578T breast
HT29 colon = tested on: HT29 colon
IGROV1 ovarian = tested on: IGROV1 ovarian
K-562 leukemia = tested on: K-562 leukemia
KM12 colon = tested on: KM12 colon
M14 melanoma = tested on: M14 melanoma
MALME-3M melanoma = tested on: MALME-3M melanoma
MCF7 breast = tested on: MCF7 breast
MDA-MB-231 breast = tested on: MDA-MB-231 breast
MDA-MB-435 = tested on: MDA-MB-435
MOLT-4 leukemia = tested on: MOLT-4 leukemia
NCI-H226 lung = tested on: NCI-H226 lung
NCI-H23 lung = tested on: NCI-H23 lung
NCI-H460 lung = tested on: NCI-H460 lung
NCI-H522 lung = tested on: NCI-H522 lung
NCI/ADR-RES ovarian = tested on: NCI/ADR-RES ovarian
OVCAR-3 ovarian = tested on: OVCAR-3 ovarian
OVCAR-5 ovarian = tested on: OVCAR-5 ovarian
OVCAR-8 ovarian = tested on: OVCAR-8 ovarian
PC-3 prostate = tested on: PC-3 prostate
RPMI-8226 leukemia = tested on: RPMI-8226 leukemia
RXF 393 renal = tested on: RXF 393 renal
SF-268 CNS = tested on: SF-268 CNS
SF-295 CNS = tested on: SF-295 CNS
SF-539 CNS = tested on: SF-539 CNS
SK-MEL-2 melanoma = tested on: SK-MEL-2 melanoma
SK-MEL-28 melanoma = tested on: SK-MEL-28 melanoma
SK-MEL-5 melanoma = tested on: SK-MEL-5 melanoma
SK-OV-3 ovarian = tested on: SK-OV-3 ovarian
SNB-19 CNS = tested on: SNB-19 CNS
SNB-75 CNS = tested on: SNB-75 CNS
SR leukemia = tested on: SR leukemia
SW-620 colon = tested on: SW-620 colon
TK-10 renal = tested on: TK-10 renal
U251 CNS = tested on: U251 CNS
UACC-257 melanoma = tested on: UACC-257 melanoma
UACC-62 melanoma = tested on: UACC-62 melanoma
UO-31 renal = tested on: UO-31 renal
A498 renal = tested on: A498 renal
DU-145 prostate = tested on: DU-145 prostate
LOX IMVI melanoma = tested on: LOX IMVI melanoma
OVCAR-4 ovarian = tested on: OVCAR-4 ovarian
SN12C renal = tested on: SN12C renal

Compound: O=S(=O)(O)c1ccc(N=Nc2ccc(N=Nc3c(O)ccc4ccccc34)c(S(=O)(=O)O)c2)cc1
- TGI (786-0 renal): > 100 µM
- TGI (A549 NSCLC): > 100 µM
- TGI (ACHN renal): > 100 µM
- TGI (BT-549 breast): > 100 µM
- TGI (CAKI-1 renal): > 100 µM
- TGI (CCRF-CEM leukemia): > 100 µM
- TGI (COLO 205 colon): > 100 µM
- TGI (EKVX NSCLC): > 100 µM
- TGI (HCC-2998 colon): > 100 µM
- TGI (HCT-116 colon): > 100 µM
- TGI (HCT-15 colon): > 100 µM
- TGI (HL-60(TB) leukemia): > 100 µM
- TGI (HOP-62 NSCLC): > 100 µM
- TGI (HOP-92 NSCLC): > 100 µM
- TGI (HS 578T breast): > 100 µM
- TGI (HT29 colon): > 100 µM
- TGI (IGROV1 ovarian): > 100 µM
- TGI (K-562 leukemia): > 100 µM
- TGI (KM12 colon): > 100 µM
- TGI (M14 melanoma): > 100 µM
- TGI (MALME-3M melanoma): > 100 µM
- TGI (MCF7 breast): > 100 µM
- TGI (MDA-MB-231 breast): > 100 µM
- TGI (MDA-MB-435): > 100 µM
- TGI (MOLT-4 leukemia): > 100 µM
- TGI (NCI-H226 lung): > 100 µM
- TGI (NCI-H23 lung): > 100 µM
- TGI (NCI-H460 lung): > 100 µM
- TGI (NCI-H522 lung): > 100 µM
- TGI (NCI/ADR-RES ovarian): > 100 µM
- TGI (OVCAR-3 ovarian): > 100 µM
- TGI (OVCAR-5 ovarian): > 100 µM
- TGI (OVCAR-8 ovarian): > 100 µM
- TGI (PC-3 prostate): > 100 µM
- TGI (RPMI-8226 leukemia): > 100 µM
- TGI (RXF 393 renal): > 100 µM
- TGI (SF-268 CNS): > 100 µM
- TGI (SF-295 CNS): > 100 µM
- TGI (SF-539 CNS): > 100 µM
- TGI (SK-MEL-2 melanoma): > 100 µM
- TGI (SK-MEL-28 melanoma): > 100 µM
- TGI (SK-MEL-5 melanoma): > 100 µM
- TGI (SK-OV-3 ovarian): > 100 µM
- TGI (SNB-19 CNS): > 100 µM
- TGI (SNB-75 CNS): > 100 µM
- TGI (SR leukemia): > 100 µM
- TGI (SW-620 colon): > 100 µM
- TGI (TK-10 renal): > 100 µM
- TGI (U251 CNS): > 100 µM
- TGI (UACC-257 melanoma): > 100 µM
- TGI (UACC-62 melanoma): > 100 µM
- TGI (UO-31 renal): > 100 µM

Compound: CCCN1C(=O)/C(=C/c2cccc(O)c2)SC1=Nc1ccc(OC)cc1
- GI50 (786-0 renal): 8.63 µM
- TGI (786-0 renal): 16.4 µM
- GI50 (A498 renal): 8.81 µM
- TGI (A498 renal): 16.5 µM
- GI50 (A549 NSCLC): 9.11 µM
- TGI (A549 NSCLC): 18.3 µM
- GI50 (ACHN renal): 8.08 µM
- TGI (ACHN renal): 15.3 µM
- GI50 (BT-549 breast): 8.08 µM
- TGI (BT-549 breast): 15.6 µM
- GI50 (CAKI-1 renal): 9.86 µM
- TGI (CAKI-1 renal): 20.5 µM
- GI50 (COLO 205 colon): 11.1 µM
- TGI (COLO 205 colon): 25.2 µM
- GI50 (DU-145 prostate): 7.93 µM
- TGI (DU-145 prostate): 15.3 µM
- GI50 (EKVX NSCLC): 9.5 µM
- TGI (EKVX NSCLC): 17.2 µM
- GI50 (HCT-116 colon): 7.35 µM
- TGI (HCT-116 colon): 13.9 µM
- GI50 (HCT-15 colon): 7.76 µM
- TGI (HCT-15 colon): 16.2 µM
- GI50 (HL-60(TB) leukemia): 4.09 µM
- TGI (HL-60(TB) leukemia): > 50 µM
- GI50 (HS 578T breast): 16.5 µM
- TGI (HS 578T breast): 34.1 µM
- GI50 (HT29 colon): 8.98 µM
- TGI (HT29 colon): 19.7 µM
- GI50 (IGROV1 ovarian): 29.5 µM
- TGI (IGROV1 ovarian): > 50 µM
- GI50 (K-562 leukemia): 2.8 µM
- TGI (K-562 leukemia): 22.3 µM
- GI50 (KM12 colon): 6.77 µM
- TGI (KM12 colon): 16.5 µM
- GI50 (LOX IMVI melanoma): 7.9 µM
- TGI (LOX IMVI melanoma): 15.2 µM
- GI50 (M14 melanoma): 12.9 µM
- TGI (M14 melanoma): 21.3 µM
- GI50 (MCF7 breast): 10.9 µM
- TGI (MCF7 breast): 29.2 µM
- GI50 (MDA-MB-231 breast): 7.86 µM
- TGI (MDA-MB-231 breast): 16 µM
- GI50 (MDA-MB-435): 10.8 µM
- TGI (MDA-MB-435): 22 µM
- GI50 (MOLT-4 leukemia): 4.7 µM
- TGI (MOLT-4 leukemia): > 50 µM
- GI50 (NCI-H226 lung): 13.3 µM
- TGI (NCI-H226 lung): 27.6 µM
- GI50 (NCI-H460 lung): 13.5 µM
- TGI (NCI-H460 lung): > 50 µM
- GI50 (NCI-H522 lung): 23.4 µM
- TGI (NCI-H522 lung): > 50 µM
- GI50 (OVCAR-3 ovarian): 10.2 µM
- TGI (OVCAR-3 ovarian): 21.1 µM
- GI50 (OVCAR-4 ovarian): 8.18 µM
- TGI (OVCAR-4 ovarian): 18.8 µM
- GI50 (OVCAR-5 ovarian): 7.94 µM
- TGI (OVCAR-5 ovarian): 14.8 µM
- GI50 (OVCAR-8 ovarian): 10.7 µM
- TGI (OVCAR-8 ovarian): 22.2 µM
- GI50 (PC-3 prostate): 6.59 µM
- TGI (PC-3 prostate): 13.2 µM
- GI50 (RPMI-8226 leukemia): 5.61 µM
- TGI (RPMI-8226 leukemia): 15.7 µM
- GI50 (RXF 393 renal): 9.3 µM
- TGI (RXF 393 renal): 19.3 µM
- GI50 (SF-268 CNS): 9.65 µM
- TGI (SF-268 CNS): 20.8 µM
- GI50 (SF-295 CNS): 11.5 µM
- TGI (SF-295 CNS): 23.3 µM
- GI50 (SF-539 CNS): 8.25 µM
- TGI (SF-539 CNS): 15.7 µM
- GI50 (SK-MEL-2 melanoma): 31.9 µM
- TGI (SK-MEL-2 melanoma): > 50 µM
- GI50 (SK-MEL-28 melanoma): 10.2 µM
- TGI (SK-MEL-28 melanoma): 20.2 µM
- GI50 (SK-MEL-5 melanoma): 7.28 µM
- TGI (SK-MEL-5 melanoma): 15.1 µM
- GI50 (SN12C renal): 9.17 µM
- TGI (SN12C renal): 17.5 µM
- GI50 (SNB-19 CNS): 9.5 µM
- TGI (SNB-19 CNS): 19.3 µM
- GI50 (SNB-75 CNS): 11.7 µM
- TGI (SNB-75 CNS): 22.8 µM
- GI50 (SR leukemia): 6.04 µM
- TGI (SR leukemia): > 50 µM
- GI50 (SW-620 colon): 9.78 µM
- TGI (SW-620 colon): 17.3 µM
- GI50 (TK-10 renal): 9.62 µM
- TGI (TK-10 renal): 19.5 µM
- GI50 (U251 CNS): 7.87 µM
- TGI (U251 CNS): 14.6 µM
- GI50 (UACC-257 melanoma): 9.48 µM
- TGI (UACC-257 melanoma): 17.1 µM
- GI50 (UACC-62 melanoma): 10.3 µM
- TGI (UACC-62 melanoma): 18.1 µM
- GI50 (UO-31 renal): 13.5 µM
- TGI (UO-31 renal): > 50 µM
